From US20230151003A1, “COMPOUNDS AND METHODS OF USE” (Exelixis, Inc., priority 2020, published 2023)

Tests used:
[1] = target: T1, AXL (Homo sapiens, UniProt P30530); assay: AXL autophosphorylation ELISA in A-172 cells; type: cell-based; conditions: Table 3 Cellular Activities, Gas6-stimulated, phospho-AXL ELISA
T1 construct: endogenous in cells; host or cells: A-172 glioblastoma cells (ATCC #CRL-1620)
T1 sequence (P30530 26-894): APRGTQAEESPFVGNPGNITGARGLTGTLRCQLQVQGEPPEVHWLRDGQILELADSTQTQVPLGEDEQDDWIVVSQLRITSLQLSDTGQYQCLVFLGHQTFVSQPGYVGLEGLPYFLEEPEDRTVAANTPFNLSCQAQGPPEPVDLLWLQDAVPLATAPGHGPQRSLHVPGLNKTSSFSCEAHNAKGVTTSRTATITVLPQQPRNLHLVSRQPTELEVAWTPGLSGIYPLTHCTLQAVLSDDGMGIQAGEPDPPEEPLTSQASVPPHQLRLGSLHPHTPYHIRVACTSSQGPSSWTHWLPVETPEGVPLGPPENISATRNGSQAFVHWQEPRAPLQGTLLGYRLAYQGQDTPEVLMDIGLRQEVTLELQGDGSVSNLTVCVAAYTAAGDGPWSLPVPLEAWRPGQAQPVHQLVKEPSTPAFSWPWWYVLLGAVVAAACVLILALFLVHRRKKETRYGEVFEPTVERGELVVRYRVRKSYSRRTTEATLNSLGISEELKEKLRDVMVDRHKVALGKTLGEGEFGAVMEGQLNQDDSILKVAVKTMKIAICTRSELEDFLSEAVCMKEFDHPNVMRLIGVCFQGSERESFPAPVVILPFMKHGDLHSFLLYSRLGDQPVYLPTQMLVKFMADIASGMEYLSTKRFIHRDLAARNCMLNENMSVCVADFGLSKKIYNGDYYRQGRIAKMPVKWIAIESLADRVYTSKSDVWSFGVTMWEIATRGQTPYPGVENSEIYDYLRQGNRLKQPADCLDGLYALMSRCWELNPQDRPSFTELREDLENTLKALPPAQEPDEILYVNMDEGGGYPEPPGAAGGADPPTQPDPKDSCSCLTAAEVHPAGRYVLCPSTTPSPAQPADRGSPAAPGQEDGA
Method in brief: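 A-172 glioblastoma cells serum-starved 24 h, treated 1 h with compounds (8-point dose curve, 0.3% DMSO), then stimulated with 1 μg/mL Gas6 for 15 min. Lysate phospho-AXL quantified by ELISA against a standard; IC50 from 4-parameter logistic fit, normalised to DMSO and reference-inhibitor controls.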

[2] = target: Met (Homo sapiens, UniProt P08581); assay: Met autophosphorylation ELISA in PC-3 cells; type: cell-based; parameters: endogenous in cells; host or cells: PC-3 prostate cancer cells (ATCC #CRL-1435); conditions: Table 3 Cellular Activities, HGF-stimulated, phospho-Met ELISA, read-out: c-Met IC50
Chain of Met (P08581 25-1390): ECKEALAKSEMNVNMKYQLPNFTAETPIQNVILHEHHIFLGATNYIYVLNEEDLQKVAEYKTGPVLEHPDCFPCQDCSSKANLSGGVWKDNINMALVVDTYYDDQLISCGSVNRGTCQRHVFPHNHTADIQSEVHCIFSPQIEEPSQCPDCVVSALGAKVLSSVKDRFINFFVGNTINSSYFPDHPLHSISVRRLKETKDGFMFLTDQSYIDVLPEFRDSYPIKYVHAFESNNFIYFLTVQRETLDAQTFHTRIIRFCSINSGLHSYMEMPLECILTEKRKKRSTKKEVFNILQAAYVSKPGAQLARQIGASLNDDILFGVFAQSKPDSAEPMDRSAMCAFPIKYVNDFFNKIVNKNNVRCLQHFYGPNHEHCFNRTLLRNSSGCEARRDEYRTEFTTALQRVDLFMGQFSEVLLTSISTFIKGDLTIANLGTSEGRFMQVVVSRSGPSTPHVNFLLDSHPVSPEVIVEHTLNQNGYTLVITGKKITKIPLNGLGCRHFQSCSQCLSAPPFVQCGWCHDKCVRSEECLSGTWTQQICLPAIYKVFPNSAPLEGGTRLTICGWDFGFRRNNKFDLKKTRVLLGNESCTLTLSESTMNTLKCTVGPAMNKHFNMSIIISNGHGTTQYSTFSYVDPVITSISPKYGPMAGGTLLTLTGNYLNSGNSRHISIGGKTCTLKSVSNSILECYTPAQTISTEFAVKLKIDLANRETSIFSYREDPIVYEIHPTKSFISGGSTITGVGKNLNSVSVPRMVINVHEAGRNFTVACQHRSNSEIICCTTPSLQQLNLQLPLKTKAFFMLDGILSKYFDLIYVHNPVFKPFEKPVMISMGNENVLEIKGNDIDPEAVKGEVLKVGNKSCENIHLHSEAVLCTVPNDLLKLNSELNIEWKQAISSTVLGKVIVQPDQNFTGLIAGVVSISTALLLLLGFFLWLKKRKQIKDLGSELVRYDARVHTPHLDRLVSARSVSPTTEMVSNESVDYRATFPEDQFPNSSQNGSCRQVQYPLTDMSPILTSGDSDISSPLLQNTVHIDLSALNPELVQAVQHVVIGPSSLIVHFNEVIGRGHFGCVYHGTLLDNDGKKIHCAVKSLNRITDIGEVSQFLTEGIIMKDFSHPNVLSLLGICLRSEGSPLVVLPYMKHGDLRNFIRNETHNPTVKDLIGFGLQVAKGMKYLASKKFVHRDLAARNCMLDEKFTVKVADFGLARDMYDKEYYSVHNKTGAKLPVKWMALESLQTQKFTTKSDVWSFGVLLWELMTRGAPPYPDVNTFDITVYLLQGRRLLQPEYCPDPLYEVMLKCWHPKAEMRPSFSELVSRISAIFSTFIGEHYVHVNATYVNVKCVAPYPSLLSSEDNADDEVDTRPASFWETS
Method in brief: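 Serum-starved (3 h) PC-3 cells pre-incubated 1 h with compound (8-point dose curve, 0.3% DMSO), then stimulated with 100 ng/mL recombinant human HGF for 10 min. Lysate phospho-Met (panTyr) measured by sandwich ELISA; IC50 from 4-parameter logistic fit, normalised to DMSO (100%) and reference-inhibitor (0%) controls.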

IC50 [1]	IC50 [2]	Structure (SMILES)
≤ 100 nM	≤ 100 nM	COc1cc2nccc(Oc3ccc(NC(=O)c4cnc(C)c(-c5cscn5)c4O)cc3F)c2nc1OC [Compound 142, N-[4-[(6,7-Dimethoxy-1,5-naphthyridin-4-yl)oxy]-3-fluorophenyl]-4-hydroxy-6-methyl-5-(1,3-thiazol-4-yl)pyridine-3-carboxamide]
≤ 100 nM	≤ 100 nM	COc1cc2nccc(Oc3ccc(NC(=O)c4cnc(C)c(-c5ccc(C(C)C)o5)c4O)cc3F)c2nc1OC [Compound 154, N-[4-[(6,7-Dimethoxy-1,5-naphthyridin-4-yl)oxy]-3-fluorophenyl]-4-hydroxy-6-methyl-5-(5-propan-2-ylfuran-2-yl)pyridine-3-carboxamide]
≤ 100 nM	≤ 100 nM	COc1cc2nccc(Oc3ccc(NC(=O)c4cn(CCF)c(C)c(-c5ccsc5)c4=O)cc3F)c2nc1OC [Compound 332, N-[4-[(6,7-Dimethoxy-1,5-naphthyridin-4-yl)oxy]-3-fluorophenyl]-1-(2-fluoroethyl)-6-methyl-4-oxo-5-thiophen-3-ylpyridine-3-carboxamide]
≤ 100 nM	≤ 100 nM	COc1cc2nccc(Oc3ccc(NC(=O)c4c(C)n(C)c(C)c(-c5ccco5)c4=O)cc3F)c2nc1OC [Compound 160, N-[4-[(6,7-Dimethoxy-1,5-naphthyridin-4-yl)oxy]-3-fluorophenyl]-5-(furan-2-yl)-1,2,6-trimethyl-4-oxopyridine-3-carboxamide]
≤ 100 nM	≤ 100 nM	COc1cc2nccc(Oc3cc(F)c(NC(=O)c4c(C)n(C)c(C)c(-c5ccco5)c4=O)cc3F)c2nc1OC [Compound 163, N-[4-[(6,7-Dimethoxy-1,5-naphthyridin-4-yl)oxy]-2,5-difluorophenyl]-5-(furan-2-yl)-1,2,6-trimethyl-4-oxopyridine-3-carboxamide]
≤ 100 nM	100 to 300 nM	CCc1ccc(-c2c(C)ncc(C(=O)Nc3ccc(Oc4ccnc5cc(OC)c(OC)nc45)c(F)c3)c2O)o1 [Compound 153, N-[4-[(6,7-Dimethoxy-1,5-naphthyridin-4-yl)oxy]-3-fluorophenyl]-5-(5-ethylfuran-2-yl)-4-hydroxy-6-methylpyridine-3-carboxamide]
≤ 100 nM	≤ 100 nM	COc1cnc2c(Oc3ccc(NC(=O)c4cn(CCF)c(C)c(-c5ccc(C)s5)c4=O)cc3F)ccnc2c1 [Compound 329, 1-(2-Fluoroethyl)-N-[3-fluoro-4-[(7-methoxy-1,5-naphthyridin-4-yl)oxy]phenyl]-6-methyl-5-(5-methylthiophen-2-yl)-4-oxopyridine-3-carboxamide]

Second part, the molecule before the results:

Structure (SMILES)	IC50 [1]	IC50 [2]
COc1cc2nccc(Oc3ccc(NC(=O)c4cnc(C)c(-c5cccs5)c4O)cc3F)c2nc1OC [Compound 90, N-[4-[(6,7-Dimethoxy-1,5-naphthyridin-4-yl)oxy]-3-fluoro-phenyl]-4-hydroxy-6-methyl-5-(2-thienyl)pyridine-3-carboxamide]	≤ 100 nM	≤ 100 nM
COc1cnc2c(Oc3ccc(NC(=O)c4cnc(C)c(-c5ccc(C)o5)c4O)cc3F)ccnc2c1 [Compound 97, N-[3-Fluoro-4-[(7-methoxy-1,5-naphthyridin-4-yl)oxy]phenyl]-4-hydroxy-6-methyl-5-(5-methyl-2-furyl)pyridine-3-carboxamide]	≤ 100 nM	100 to 300 nM
COc1cc2nccc(Oc3ccc(NC(=O)c4cnc(C)c(-c5ccco5)c4O)cc3F)c2nc1OC [Compound 89, N-[4-[(6,7-Dimethoxy-1,5-naphthyridin-4-yl)oxy]-3-fluorophenyl]-5-(furan-2-yl)-4-hydroxy-6-methylpyridine-3-carboxamide]	≤ 100 nM	≤ 100 nM
COc1cc2nccc(Oc3ccc(NC(=O)c4c(C)ncc(-c5ccc(C)o5)c4O)cc3F)c2nc1OC [Compound 120, N-[4-[(6,7-Dimethoxy-1,5-naphthyridin-4-yl)oxy]-3-fluorophenyl]-4-hydroxy-2-methyl-5-(5-methylfuran-2-yl)pyridine-3-carboxamide]	≤ 100 nM	≤ 100 nM
COc1cc2nccc(Oc3ccc(NC(=O)c4cc(Br)c(C)n(-c5ccc(F)cn5)c4=O)cc3F)c2nc1OC [Compound 55, 5-Bromo-N-[4-[(6,7-dimethoxy-1,5-naphthyridin-4-yl)oxy]-3-fluorophenyl]-1-(5-fluoropyridin-2-yl)-6-methyl-2-oxopyridine-3-carboxamide]	≤ 100 nM	≤ 100 nM
COc1cc2nccc(Oc3ccc(NC(=O)c4cnc(C)c(-c5ccoc5)c4O)cc3F)c2nc1OC [Compound 95, N-[4-[(6,7-Dimethoxy-1,5-naphthyridin-4-yl)oxy]-3-fluoro-phenyl]-5-(3-furyl)-4-hydroxy-6-methyl-pyridine-3-carboxamide]	≤ 100 nM	≤ 100 nM
COc1cc2nccc(Oc3ccc(NC(=O)c4cnc(C)c(-c5cncs5)c4O)cc3F)c2nc1OC [Compound 141, N-[4-[(6,7-Dimethoxy-1,5-naphthyridin-4-yl)oxy]-3-fluorophenyl]-4-hydroxy-6-methyl-5-(1,3-thiazol-5-yl)pyridine-3-carboxamide]	≤ 100 nM	≤ 100 nM
COc1cc2nccc(Oc3ccc(NC(=O)c4c(C)nc(C)c(-c5ccsc5)c4O)cc3F)c2nc1OC [Compound 106]	≤ 100 nM	≤ 100 nM
COc1cnc2c(Oc3ccc(NC(=O)c4cnc(C)c(-c5ccco5)c4O)cc3F)ccnc2c1 [Compound 96, N-[3-Fluoro-4-[(7-methoxy-1,5-naphthyridin-4-yl)oxy]phenyl]-5-(2-furyl)-4-hydroxy-6-methyl-pyridine-3-carboxamide]	≤ 100 nM	≤ 100 nM
COc1cnc2c(Oc3ccc(NC(=O)c4cnc(C)c(-c5cccs5)c4O)cc3F)ccnc2c1 [Compound 100, N-[3-Fluoro-4-[(7-methoxy-1,5-naphthyridin-4-yl)oxy]phenyl]-4-hydroxy-6-methyl-5-(2-thienyl)pyridine-3-carboxamide]	≤ 100 nM	≤ 100 nM
COc1cnc2c(Oc3ccc(NC(=O)c4cnc(C)c(-c5ccsc5)c4O)cc3F)ccnc2c1 [Compound 98, N-[3-Fluoro-4-[(7-methoxy-1,5-naphthyridin-4-yl)oxy]phenyl]-4-hydroxy-6-methyl-5-(3-thienyl)pyridine-3-carboxamide]	≤ 100 nM	≤ 100 nM
COc1cc2nccc(Oc3ccc(NC(=O)c4c(C)nc(C)c(-c5ccco5)c4O)cc3F)c2nc1OC [Compound 135, N-[4-[(6,7-Dimethoxy-1,5-naphthyridin-4-yl)oxy]-3-fluorophenyl]-5-(furan-2-yl)-4-hydroxy-2,6-dimethylpyridine-3-carboxamide]	≤ 100 nM	≤ 100 nM
COc1cc2nccc(Oc3ccc(NC(=O)c4c(C)ncc(-c5ccco5)c4O)cc3F)c2nc1OC [Compound 119, N-[4-[(6,7-Dimethoxy-1,5-naphthyridin-4-yl)oxy]-3-fluorophenyl]-5-(furan-2-yl)-4-hydroxy-2-methylpyridine-3-carboxamide]	≤ 100 nM	≤ 100 nM
COc1cc2nccc(Oc3ccc(NC(=O)c4c(C)nc(C)c(-c5sccc5C)c4O)cc3F)c2nc1OC [Compound 139, N-[4-[(6,7-Dimethoxy-1,5-naphthyridin-4-yl)oxy]-3-fluorophenyl]-4-hydroxy-2,6-dimethyl-5-(3-methylthiophen-2-yl)pyridine-3-carboxamide]	≤ 100 nM	≤ 100 nM
